Assay results: patent US6395732B1, “Pyrimidin-aminomethyl-pyridine derivatives, their preparation and their use in the control of helicobacter bacteria” (BYK Gulden Lomberg Chemische Fabrik GmbH, priority 1998, dated 2002)

Tests used:
Helicobacter pylori = test: Activity against Helicobacter pylori, agar method of Iwahi et al. (MIC 50); type: cell-based; details: Helicobacter pylori, 96 h; Columbia agar (Oxoid), growth period of 4 days; approximate values; read-out: Appr. MIC 50
Description: The compounds of the formula I were investigated with respect to their activity against Helicobacter pylori following the method described by Tomoyuki Iwahi et al. (Antimicrobial Agents and Chemotherapy, 1991, 490-496) using Columbia agar (Oxoid) and a growth period of 4 days.

Structure (SMILES) | MIC50 (Helicobacter pylori) | melting point
Cc1nc(C)c(Cl)c(NCc2nccc(SCCCSc3sccc3[N+](=O)[O-])c2C)n1 [Compound 40, (5-Chloro-2,6-dimethyl-pyrimidin-4-yl)-{3-methyl-4-[3-(3-nitro-thiophen-2-ylsulfanyl)-propylsulfanyl]-pyridin-2-ylmethyl}-amine] | ≤ 0.1 µg/mL | 174 to 180 °C
Cc1nc(C)c(Cl)c(NCc2nccc(SCCCCSCCn3c([N+](=O)[O-])cnc3C)c2C)n1 [Compound 19, (5-Chloro-2,6-dimethylpyrimidin-4-yl)-(3-methyl-4-{4-[2-(2-methyl-5-nitroimidazol-1-yl)-ethylsulfanyl]butylsulfanyl}pyridin-2-ylmethyl)amine] | ≤ 0.1 µg/mL | 142 to 144 °C
Cc1nc(C)c(Cl)c(NCc2nccc(SCCCSCc3cccnc3)c2C)n1 [Compound 47, (5-Chloro-2,6-dimethyl-pyrimidin-4-yl)-{3-methyl-4-[3-(pyridin-3-ylmethylsulfanyl)-propylsulfanyl]-pyridin-2-ylmethyl}-amine] | ≤ 0.1 µg/mL | 104 to 105 °C
Cc1c(OCCSCc2ccco2)ccnc1CNc1ncncc1Cl [Compound 58, (5-Chloro-pyrimidin-4-yl)-{4-[2-(furan-2-ylmethylsulfanyl)-ethoxy]-3-methyl-pyridin-2-ylmethyl}-amine] | ≤ 0.1 µg/mL | 129 to 130 °C
Cc1nc(C)c(Cl)c(NCc2nccc(SCCOCCn3c([N+](=O)[O-])cnc3C)c2C)n1 [Compound 57, (5-Chloro-2,6-dimethyl-pyrimidin-4-yl)-(3-methyl-4-{2-[2-(2-methyl-5-nitro-imidazol-1-yl)-ethoxy]-ethylsulfanyl}-pyridin-2-ylmethyl)-amine] | ≤ 0.1 µg/mL | 160 to 163 °C
CN(CCO)c1ccnc(CNc2ncncc2Cl)c1Cl [Compound 55, 2-({3-Chloro-2-[(5-chloro-pyrimidin-4-ylamino)-methyl]-pyridin-4-yl}-methyl-amino)-ethanol] | ≤ 0.1 µg/mL | 158 to 161 °C
Cc1nc(C)c(Cl)c(NCc2nccc(SCCOCCOCC(F)(F)F)c2C)n1.Cl [Compound 4, (5-Chloro-2,6-dimethylpyrimidin-4-yl)-(3-methyl-4-{2-[2-(2,2,2-trifluoroethoxy)ethoxy]ethylsulfanyl}pyridin-2-ylmethyl)amine hydrochloride] | ≤ 0.1 µg/mL | 235 to 241 °C (dec.)
Cc1nc(C)c(Cl)c(NCc2nccc(SCCOCCSCc3ccncc3)c2C)n1 [Compound 42, (5-Chloro-2,6-dimethyl-pyrimidin-4-yl)-(3-methyl-4-{2-[2-(pyridin-4-ylmethylsulfanyl)-ethoxy]-ethylsulfanyl}-pyridin-2-ylmethyl)-amine] | ≤ 0.1 µg/mL | 68 to 71 °C
Cc1nc(C)c(Cl)c(NCc2nccc(SCCCCSCCO)c2C)n1 [Compound 37, 2-(4-{2-[(5-Chloro-2,6-dimethyl-pyrimidin-4-ylamino)-methyl]-3-methyl-pyridin-4-ylsulfanyl}-butylsulfanyl)-ethanol] | ≤ 0.1 µg/mL | 142 to 143 °C
Cc1nc(C)c(Cl)c(NCc2nccc(SCCCSCC3CN(C)C(=O)O3)c2C)n1 (stereo not shown) [Compound 5, 5-(3-{2-[(5-Chloro-2,6-dimethylpyrimidin-4-ylamino)methyl]-3-methylpyridin-4-yl-sulfanyl}propylsulfanylmethyl)-3-methyloxazolidin-2-one] | ≤ 0.1 µg/mL | 121 °C
Cc1c(SCCCSCc2ccncc2)ccnc1CNc1ncncc1Cl [Compound 8, (5-Chloropyrimidin-4-yl)-{3-methyl-4-[3-(pyridin-4-ylmethylsulfanyl)propylsulfanyl]-pyridin-2-ylmethyl}amine] | ≤ 0.1 µg/mL | 148 to 149 °C
Cc1nc(C)c(Cl)c(NCc2nccc(OCCCCSCCO)c2C)n1 [Compound 36, 2-(4-{2-[(5-Chloro-2,6-dimethyl-pyrimidin-4-ylamino)-methyl]-3-methyl-pyridin-4-yloxy}-butylsulfanyl)-ethanol] | ≤ 0.1 µg/mL | 116 to 118 °C
Cc1nc(C)c(Cl)c(NCc2nccc(OCCOCCSCCn3c([N+](=O)[O-])cnc3C)c2C)n1 [Compound 28, (5-Chloro-2,6-dimethyl-pyrimidin-4-yl)-[3-methyl-4-(2-{2-[2-(2-methyl-5nitro-imidazol-1-yl)ethylsulfanyl]-ethoxy}-ethoxy)-pyridin-2-ylmethyl]-amine] | ≤ 0.1 µg/mL | 102 to 105 °C
Cc1nc(C)c(Cl)c(NCc2nccc(SCCCSCCSc3ncccn3)c2C)n1 [Compound 41, (5-Chloro-2,6-dimethyl-pyrimidin-4-yl)-(3-methyl-4-{3-[2-(pyrimidin-2-ylsulfanyl)-ethylsulfanyl]-propylsulfanyl}-pyridin-2-ylmethyl)-amine] | ≤ 0.1 µg/mL | 112 to 115 °C
Cc1nc(C)c(Cl)c(NCc2nccc(SCCCSc3ncccn3)c2C)n1 [Compound 10, (5-Chloro-2,6-dimethylpyrimidin-4-yl)-{3-methyl-4-[3-(pyrimidin-2-ylsulfanyl)propylsulfanyl]-pyridin-2-ylmethyl}amine] | ≤ 0.1 µg/mL | 158 to 159 °C
Cc1nc(C)c(Cl)c(NCc2nccc(SCC3CCCN(C)C3)c2C)n1 (stereo not shown) [Compound 44, (5-Chloro-2,6-dimethyl-pyrimidin-4-yl)-[3-methyl-4-(1-methyl-piperidin-3-ylmethylsulfanyl)-pyridin-2-ylmethyl]-amine] | ≤ 0.1 µg/mL | 148 to 149 °C
Cc1c(SCCCN2CCN(Cc3ccncc3)CC2)ccnc1CNc1ncncc1Cl [Compound 45, (5-Chloro-pyrimidin-4-yl)-{3-methyl-4-[3-(4-pyridin-4-ylmethyl-piperazin-1-yl)-propylsulfanyl]-pyridin-2-ylmethyl}-amine] | ≤ 0.1 µg/mL | 149 to 151 °C
Cc1nc(C)c(Cl)c(NCc2nccc(SCCCCN3CCNCC3)c2C)n1 [Compound 17, (5-Chloro-2,6-dimethylpyrimidin-4-yl)-[3-methyl-4-(4-piperazin-1-ylbutylsulfanyl)pyridin-2-ylmethyl]amine] | ≤ 0.1 µg/mL | 143 to 145 °C
Cc1nc(C)c(Cl)c(NCc2nccc(SCCCCSCc3ccncc3)c2C)n1 [Compound 20, (5-Chloro-2,6-dimethylpyrimidin-4-yl)-{3-methyl-4-[4-(pyridin-4-ylmethylsulfanyl)butylsulfanyl]pyridin-2-ylmethyl}amine] | ≤ 0.1 µg/mL | 104 to 106 °C
Cc1nc(C)c(Cl)c(NCc2nccc(SCCCSCc3ccccn3)c2C)n1 [Compound 48, (5-Chloro-2,6-dimethyl-pyrimidin-4-yl)-{3-methyl-4-[3-(pyridin-2-ylmethylsulfanyl)-propylsulfanyl]-pyridin-2-ylmethyl}-amine] | ≤ 0.1 µg/mL | 100 to 101 °C
Cc1nc(C)c(Cl)c(NCc2nccc(OCCSCCn3c([N+](=O)[O-])cnc3C)c2C)n1 [Compound 32, (5-Chloro-2,6-dimethyl-pyrimidin-4-yl)-(3-methyl-4-{2-[2-(2-methyl-5-nitro-imidazol-1-yl)-ethylsulfanyl]-ethoxy}-pyridin-2-ylmethyl)-amine] | ≤ 0.1 µg/mL | 139 to 144 °C
Cc1nc(C)c(Cl)c(NCc2nccc(SCCCN3CCN(CC4CN(Cc5ccncc5)C(=O)O4)CC3)c2C)n1 (stereo not shown) [Compound 38, 5-[4-(3-{2-[(5-Chloro-2,6-dimethyl-pyrimidin-4-ylamino)-methyl]-3-methyl-pyridin-4-ylsulfanyl}-propyl)-piperazin-1-ylmethyl]-3-pyridin-4-ylmethyl-oxazolidin-2-one] | ≤ 0.1 µg/mL | 123 to 126 °C
Cc1c(OCCSCc2ccncc2)ccnc1CNc1ncncc1Cl [Compound 54, (5-Chloro-pyrimidin-4-yl)-{3-methyl-4-[2-(pyridin-4-ylmethylsulfanyl)-ethoxy)-pyridine-2-ylmethyl}-amine] | ≤ 0.1 µg/mL | 119 to 121 °C
Cc1nc(C)c(Cl)c(NCc2nccc(OCCCCSCc3ccccn3)c2C)n1 [Compound 51, (5-Chloro-2,6-dimethyl-pyrimidin-4-yl)-{3-methyl-4-[4-(pyridin-2-ylmethylsulfanyl)-butoxy]-pyridin-2-ylmethyl}-amine] | ≤ 0.1 µg/mL | 113 to 114 °C
Cc1c(SCc2ccco2)ccnc1CNc1ncncc1Cl [Compound 59, (5-Chloro-pyrimidin-4-yl)-[4-(furan-2-ylmethylsulfanyl)-3-methyl-pyridin-2-ylmethyl]-amine] | ≤ 0.1 µg/mL | 169 to 170 °C
Cc1nc(C)c(Cl)c(NCc2nccc(SCc3ccncc3)c2C)n1 [Compound 46, (5-Chloro-2,6-dimethyl-pyrimidin-4-yl)-[3-methyl-4-(pyridin-4-ylmethylsulfanyl)-pyridin-2-ylmethyl]-amine] | ≤ 0.1 µg/mL | 188 to 191.9 °C
